In US12351828B2, “Method for constructing hepatic progenitor cell-like cell bank, cell lines prepared therefrom and application thereof” (SHANGHAI CELLIVER BIOTECHNOLOGY CO., LTD., priority 2019, dated 2025):

Tests used:
Experiment in all cases: Erlotinib-specific hepatotoxicity, in vitro three-dimensional hepatocyte model, PrestoBlue cell viability
Assay type in all cases: cell-based, human
[1] = tested on: fifth hepatocyte model line; conditions: co-cultured 48 hours, 0.24-250 μMol/L, FIG. 6e
From the text: (§1) The in vitro three-dimensional hepatocyte model is constructed by using the hepatic progenitor cell-like cell bank. The method for constructing the in vitro three-dimensional hepatocyte model is stated in the “Expansion and Differentiation of Human Hepatocyte-derived Liver Progenitor-like Cells and Their Use for the Study of Hepatotropic Pathogens” published in Volume 29, Issue 1, 2018, Cell Research, and is not repeated here. In the process of constructing the in vitro three-dimensional hepatocyte model, a first hepatocyte model line, a second hepatocyte model line, a third hepatocyte model line, a fourth hepatocyte model line, a fifth hepatocyte model line and a sixth hepatocyte model line are obtained by the first immortal hepatic progenitor cell-like cell line, the second immortal hepatic progenitor cell-like cell line, the third immortal hepatic progenitor cell-like cell line, the fourth immortal hepatic progenitor cell-like cell line, the fifth immortal hepatic progenitor cell-like cell line and the sixth immortal hepatic progenitor cell-like cell line, respectively.
(§2) In the embodiment of the present invention, the specific toxic drug Erlotinib is used to characterize the specific hepatotoxicity of the in vitro three-dimensional hepatocyte model.
(§3) Preparing a Erlotinib solutions with concentrations of 250 μMol/L, 62.5 μMol/L, 15.625 μMol/L, 3.9 μMol/L, 0.97 μMol/L, 0.24 μMol/L by dimethyl sulfoxide (DMSO), and using DMSO as a blank reference.
(§4) Each hepatocyte model line in the in vitro three-dimensional hepatocyte model is co-cultured with different concentrations of Erlotinib aqueous solution for 48 hours.
(§5) After the co-culture is completed, the PrestoBlue™ cell viability testing reagent produced by Life Technologies is used to characterize the Erlotinib-specific hepatotoxicity in each culture obtained after the co-culture, respectively. The specific methods for the co-culture and the characterization of the Erlotinib-specific hepatotoxicity are common methods known by those skilled in the art and will not be repeated here.

[2] = tested on: first hepatocyte model line; conditions: co-cultured 48 hours, 0.24-250 μMol/L, FIG. 6a
From the text: as §1, §2, §3, §4, §5

[3] = tested on: fourth hepatocyte model line; conditions: co-cultured 48 hours, 0.24-250 μMol/L, FIG. 6d
From the text: as §1, §2, §3, §4, §5

[4] = tested on: second hepatocyte model line; conditions: co-cultured 48 hours, 0.24-250 μMol/L, FIG. 6b
From the text: as §1, §2, §3, §4, §5

[5] = tested on: sixth hepatocyte model line; conditions: co-cultured 48 hours, 0.24-250 μMol/L, FIG. 6f
From the text: as §1, §2, §3, §4, §5

[6] = tested on: third hepatocyte model line; conditions: co-cultured 48 hours, 0.24-250 μMol/L, FIG. 6c
From the text: as §1, §2, §3, §4, §5

## C#Cc1cccc(Nc2ncnc3cc(OCCOC)c(OCCOC)cc23)c1 [Erlotinib]
[1]
  cell viability with the increase in the concentration of Erlotinib solution: basically does not significant changed
[2]
  cell viability with the increase in the concentration of Erlotinib solution: basically does not significant changed
[3]
  cell viability with the increase in the concentration of Erlotinib solution: significant downward trend
[4]
  cell viability with the increase in the concentration of Erlotinib solution: basically does not significant changed
[5]
  cell viability with the increase in the concentration of Erlotinib solution: basically does not significant changed
[6]
  cell viability with the increase in the concentration of Erlotinib solution: significant downward trend
